The term melting point denotes the temperature of the solid-liquid transition. In turn, `COCCCC(=O)N[C@H]1CC[C@H](CCN2CCN(c3cccc(C#N)c3)CC2)CC1` [Example 513, N-(4-{2-[4-(3-Cyanophenyl)-piperazin-1-yl]ethyl}cyclohexyl)-4-methoxybutanamide] yielded a melting point of 168 °C.
In the case of `CCOCC(=O)N[C@H]1CC[C@H](CCN2CCN(c3cc(C(F)(F)F)ccc3F)CC2)CC1` [Example 514, 2-Ethoxy-N-(4-{2-[4-(2-fluoro-5-trifluoromethylphenyl)piperazin-1-yl]ethyl}cyclohexyl)acetamide] it was 128 °C.
Under `CCOCC(=O)N[C@H]1CC[C@H](CCN2CCN(c3ccc(Cl)cc3)CC2)CC1` [Example 515, N-(4-{2-[4-(4-Chloro-phenyl)piperazin-1-yl]ethyl}-cyclohexyl)-2-ethoxyacetamide] stands 154 °C; under `CCCOCC(=O)N[C@H]1CC[C@H](CCN2CCN(c3cccc(C(F)(F)F)c3F)CC2)CC1` [Example 516, N-(4-{2-[4-(2-Fluoro-3-trifluoromethylphenyl)piperazin-1-yl]ethyl}cyclohexyl)-2-propoxyacetamide], 102 °C.
Under `O=C(N[C@H]1CC[C@H](CCN2CCN(c3ccc(Cl)cc3F)CC2)CC1)C1=CCCC1` [Example 517, Cyclopent-1-enecarboxylic acid (4-{2-[4-(4-chloro-2-fluorophenyl)piperazin-1-yl]ethyl}cyclohexyl) amide] stands 216 °C.
`Cc1ccc(N2CCN(CC[C@H]3CC[C@H](NC(=O)C4=CCCC4)CC3)CC2)c(F)c1` [Example 518, Cyclopent-1-enecarboxylic acid (4-{2-[4-(2-fluoro-4-methylphenyl)piperazin-1-yl]ethyl}cyclohexyl) amide] yielded a melting point of 202 °C.
In the case of `N#CCC(=O)N[C@H]1CC[C@H](CCN2CCN(c3ccc(Cl)c(Cl)c3F)CC2)CC1` [Example 519, 2-Cyano-N-(4-{2-[4-(3,4-dichloro-2-fluorophenyl)piperazin-1-yl]ethyl}cyclohexyl)acetamide], the melting point came out at 237 °C.
Under `N#CCCCC(=O)N[C@H]1CC[C@H](CCN2CCN(c3ccc(Cl)c(Cl)c3F)CC2)CC1` [Example 520, 4-Cyano-N-(4-{2-[4-(3,4-dichloro-2-fluorophenyl)piperazin-1-yl]ethyl}cyclohexyl)butanamide] stands 199 °C; under `CCOCC(=O)N[C@H]1CC[C@H](CCN2CCN(c3cc(Cl)ccc3Cl)CC2)CC1` [Example 521, N-(4-{2-[4-(2,5-Dichlorophenyl)-piperazin-1-yl]ethyl}cyclohexyl)-2-ethoxyacetamide], 128 °C.
In the case of `N#CCCCC(=O)N[C@H]1CC[C@H](CCN2CCN(c3cccc(F)c3C#N)CC2)CC1` [Example 522, 4-Cyano-N-(4-{2-[4-(2-cyano-3-fluorophenyl)piperazin-1-yl]ethyl}cyclohexyl)butanamide] it was 175 °C.
In turn, `O=C(N[C@H]1CC[C@H](CCN2CCN(c3cc(F)c(F)cc3F)CC2)CC1)C1=CCCC1` [Example 523, Cyclopent-1-enecarboxylic acid (4-{2-[4-(2,4,5-trifluorophenyl)piperazin-1-yl]ethyl}cyclohexyl) amide] displayed a melting point of 199 °C.
In the case of `N#Cc1cccc(N2CCN(CC[C@H]3CC[C@H](NC(=O)C4=COCC4)CC3)CC2)c1` [Example 524, 4,5-Dihydrofuran-3-carboxylic acid (4-{2-[4-(3-cyanophenyl)piperazin-1-yl]ethyl}cyclohexyl) amide] it was 165 °C; in that of `O=C(N[C@H]1CC[C@H](CCN2CCN(c3cc(Cl)ccc3F)CC2)CC1)C1=CCCC1` [Example 525, Cyclopent-1-enecarboxylic acid (4-{2-[4-(5-chloro-2-fluorophenyl)piperazin-1-yl]ethyl}cyclohexyl) amide], 198 °C; in that of `N#CCCCC(=O)N[C@H]1CC[C@H](CCN2CCN(c3cccc(-c4ncco4)c3)CC2)CC1` [Example 526, 4-Cyano-N-(4-{2-[4-(3-oxazol-2-ylphenyl)piperazin-1-yl]ethyl}cyclohexyl)butanamide], 192 °C.
For the compound `O=C(N[C@H]1CC[C@H](CCN2CCN(c3ccc(F)cc3F)CC2)CC1)C1=COCC1` [Example 527, 4,5-Dihydrofuran-3-carboxylic acid (4-{2-[4-(2,4-difluorophenyl)piperazin-1-yl]ethyl}cyclohexyl) amide], the melting point came to 192 °C.
Under `N#CCC(=O)N[C@H]1CC[C@H](CCN2CCN(c3cc(Cl)cc(C(F)(F)F)c3)CC2)CC1` [Example 528, N-(4-{2-[4-(3-Chloro-5-trifluoromethylphenyl)piperazin-1-yl]ethyl}cyclohexyl)-2-cyanoacetamide] stands 172 °C; under `N#CCCCC(=O)N[C@H]1CC[C@H](CCN2CCN(c3cc(Cl)cc(C(F)(F)F)c3)CC2)CC1` [Example 529, N-(4-{2-[4-(3-Chloro-5-trifluoromethylphenyl)piperazin-1-yl]ethyl}cyclohexyl)-4-cyanobutanamide], 152 °C; under `N#CCC(=O)N[C@H]1CC[C@H](CCN2CCN(c3cccc(-c4ncco4)c3)CC2)CC1` [Example 530, 2-Cyano-N-(4-{2-[4-(3-oxazol-2-ylphenyl)piperazin-1-yl]ethyl}cyclohexyl)acetamide], 185 °C.
Under `O=C(N[C@H]1CC[C@H](CCN2CCN(c3cccc(-c4ncco4)c3)CC2)CC1)C1=COCC1` [Example 532, 4,5-Dihydrofuran-3-carboxylic acid(4-{2-[4-(3-oxazol-2-ylphenyl)piperazin-1-yl]ethyl}cyclohexyl) amide] stands 202 °C.
Under `CCOC(=O)CN1CCC(CCN2CCN(c3cccc(C)c3C)CC2)CC1` [Example 533, (4-{2-[4-(2,3-Dimethylphenyl)piperazin-1-yl]ethyl}piperidin-1-yl)acetic acid ethyl ester] stands 82 °C.
In the case of `Cc1ccc(F)c(N2CCN(CC[C@H]3CC[C@H](NC(=O)C4=CCCC4)CC3)CC2)c1` [Example 534, Cyclopent-1-enecarboxylic acid (4-{2-[4-(2-fluoro-5-methylphenyl)piperazin-1-yl]ethyl}cyclohexyl) amide], the melting point worked out at 174 °C.
In the case of `CCOc1cccc(N2CCN(CC[C@H]3CC[C@H](NC(=O)CCCC#N)CC3)CC2)c1` [Example 535, 4-Cyano-N-(4-{2-[4-(3-ethoxyphenyl)piperazin-1-yl]ethyl}cyclohexyl)butanamide] it was 121 °C; in that of `Cc1ccc(N2CCN(CC[C@H]3CC[C@H](NC(=O)C4=CCCC4)CC3)CC2)cc1F` [Example 537, Cyclopent-1-enecarboxylic acid (4-{2-[4-(3-fluoro-4-methylphenyl)piperazin-1-yl]ethyl}cyclohexyl) amide], 220 °C; in that of `Cc1ccc(N2CCN(CC[C@H]3CC[C@H](NC(=O)CCCC#N)CC3)CC2)cc1F` [Example 538, 4-Cyano-N-(4-{2-[4-(3-fluoro-4-methylphenyl)piperazin-1-yl]ethyl}cyclohexyl)butanamide], 180 °C.
In the case of `CCOCC(=O)N[C@H]1CC[C@H](CCN2CCN(c3ccc(C)c(F)c3)CC2)CC1` [Example 539, 2-Ethoxy-N-(4-{2-[4-(3-fluoro-4-methylphenyl)piperazin-1-yl]ethyl}cyclohexyl)acetamide] it was 124 °C; in that of `CCC(O)c1cccc(N2CCN(CC[C@H]3CC[C@H](NC(=O)CCCC#N)CC3)CC2)c1` (stereo partly drawn) [Example 540, 4-cyano-N-[4-(2-{4-[3-(1-hydroxypropyl)phenyl]piperazin-1-yl}ethyl)cyclohexyl]butanamide], 151 °C; in that of `COCC(=O)N[C@H]1CC[C@H](CCN2CCN(c3cc(F)c(F)c(F)c3)CC2)CC1` [Example 542, 2-Methoxy-N-(4-{2-[4-(3,4,5-trifluorophenyl)piperazin-1-yl]ethyl}cyclohexyl)acetamide], 153 °C.
Under `O=C(N[C@H]1CC[C@H](CCN2CCN(c3ccc(F)c(F)c3F)CC2)CC1)C1=CCCC1` [Example 543] stands 213 °C.
With `N#CCCCC(=O)N[C@H]1CC[C@H](CCN2CCN(c3ccc(C(F)(F)F)cc3)CC2)CC1` [Example 544, 4-Cyano-N-(4-{2-[4-(4-trifluoromethylphenyl)piperazin-1-yl]ethyl}cyclohexyl)butanamide], the melting point is 207 °C.
`COCCCC(=O)N[C@H]1CC[C@H](CCN2CCN(c3cccc(Cl)c3C)CC2)CC1` [Example 547, N-(4-{2-[4-(3-Chloro-2-methylphenyl)piperazin-1-yl]ethyl}cyclohexyl)-4-methoxybutanamide] had a melting point of 188 °C.
Turning to `N#CCC(=O)N[C@H]1CC[C@H](CCN2CCN(c3ccc(F)c(Cl)c3F)CC2)CC1` [Example 551, N-(4-{2-[4-(3-Chloro-2,4-difluorophenyl)piperazin-1-yl]ethyl}cyclohexyl)-2-cyanoacetamide], the melting point turned out to be 198 °C.
Consider `N#CCCCC(=O)N[C@H]1CC[C@H](CCN2CCN(c3ccc(F)c(Cl)c3F)CC2)CC1` [Example 552, N-(4-{2-[4-(3-Chloro-2,4-difluorophenyl)piperazin-1-yl]ethyl}cyclohexyl)-4-cyanobutanamide], for which the melting point was 192 °C.
The compound `Cc1ccccc1N1CCN(CC[C@H]2CC[C@H](NC(=O)C3=CCCC3)CC2)CC1` [Example 556, Cyclopent-1-enecarboxylic acid {4-[2-(4-o-tolylpiperazin-1-yl)ethyl]cyclohexyl} amide] had a melting point of 181 °C.
Consider `CCOCC(=O)N[C@H]1CC[C@H](CCN2CCN(c3ccccc3C)CC2)CC1` [Example 557], for which the melting point stood at 101 °C.
With `N#CCCCC(=O)N[C@H]1CC[C@H](CCN2CCc3cc(C#N)ccc3C2)CC1` [Example 558, 4-Cyano-N-{4-[2-(6-cyano-3,4-dihydro-1H-isoquinolin-2-yl)ethyl]cyclohexyl}butanamide], the melting point worked out at 177 °C.
Under `N#CCC(=O)N[C@H]1CC[C@H](CCN2CCc3cc(C#N)ccc3C2)CC1` [Example 559, 2-Cyano-N-{4-[2-(6-cyano-3,4-dihydro-1H-isoquinolin-2-yl)ethyl]cyclohexyl}acetamide] stands 206 °C.

Values taken from patent US8802678B2, “Carbonylated (aza) cyclohexanes as dopamine D3 receptor ligands” (Bioprojet, priority 2006, dated 2014).
